Source: ChEMBL document CHEMBL5604062, “ASAP - ZIKV NS2B-NS3 protease fluorescence dose response” (2024)
“And” between values parts separate entries of the source, which are not always exact repeats. Equal entries are not always repeated.

What follows are molecules tested against Nonstructural protein 3 (Zika virus, UniProt A0A024AXB9) (assay: Functional biochemical assay to identify treatments for viral infectious disease that targets Zika NS2B-NS3 protease. Utilizing a direct enzyme activity measurement method, reading the fluorescence intensity is used to characterize the relative potency of inhibitors as IC50.).
Sequence of Nonstructural protein 3 (A0A024AXB9 whole entry): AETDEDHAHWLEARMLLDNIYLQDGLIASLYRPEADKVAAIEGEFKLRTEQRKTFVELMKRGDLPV
Design: species or system PRVABC59

SMILES	IC50
O=C(Nc1cc(Cl)cc(C(=O)Nc2ccc3c(c2)CNC3)c1)OCc1ccccc1	< 2.49 µM and 0.175 µM and 0.19 µM
C[C@@H](Cc1c[nH]c2ccccc12)N1CCC(c2nc3ccccc3s2)CC1	> 99.5 µM
O=C(Nc1cc(Cl)cc(C(=O)Nc2cccc(C3CCNCC3)c2)c1)OCc1ccccc1	13.2 µM and 12.5 µM
CS(=O)(=O)c1cc(NC(=O)OCc2ccccc2)cc(C(=O)Nc2cccc(CN)c2)c1	> 99.5 µM
c1nc(C2CCN(Cc3n[nH]c4c3CCC4)CC2)cs1	> 99.5 µM
CCC1([C@H](NC(=O)OCc2ccccc2)C(=O)NCc2cccc(CN)c2)CCCCC1	> 99.5 µM
Cc1cc(NS(=O)(=O)c2ccc(Cl)cc2C(=O)O)nn1Cc1ccccc1	> 99.5 µM
Fc1cccc(F)c1-c1n[nH]cc1CN1CCC(c2nc3ccccc3s2)CC1	> 99.5 µM
CC(C)(C)OC(=O)NCc1cccc(NC(=O)c2cc(N)cc(Cl)c2)c1	> 99.5 µM
Cc1c(NC(=O)OCc2ccccc2)cc(C(=O)Nc2cccc(CN)c2)cc1C(F)(F)F	> 99.5 µM
O=C(O)c1cc(Cl)ccc1S(=O)(=O)Nc1ccc(-c2n[nH]c3c2CCCC3)cc1	> 99.5 µM
CN1CCn2nc(NC(=O)c3cc(Cl)cc(NC(=O)OCc4ccccc4)c3)cc2C1	> 99.5 µM
c1nc(C2CCN(Cc3n[nH]c4c3COCC4)CC2)cs1	> 99.5 µM
COC(=O)c1n[nH]cc1CN1CCC(c2nc3ccccc3s2)CC1	> 99.5 µM
CC(C)N1CCc2nc(NC(=O)c3cc(Cl)cc(NC(=O)OCc4ccccc4)c3)sc2C1	> 99.5 µM
O=C(O)c1cc(Cl)ccc1S(=O)(=O)Nc1ccc(CN2CCCCC2)cc1	> 99.5 µM
CC(C)c1cc(S(=O)(=O)N[C@H](C(=O)Nc2cccc(CN)c2)c2ccc(OCc3ccccc3)cc2)on1	> 99.5 µM
Cc1nc(CCCNCc2n[nH]c3ccccc23)cs1	> 99.5 µM
NCc1cccc(NC(=O)[C@@H](NS(=O)(=O)c2ccccn2)c2ccc(OCc3ccccc3)cc2)c1	> 99.5 µM
c1ccc2sc(C3CCN(CCc4c[nH]c5ccccc45)CC3)nc2c1	> 99.5 µM

SMILES	IC50
NC[C@H]1CC[C@H](NC(=O)c2cc(Cl)cc(NC(=O)OCc3ccccc3)c2)CC1	> 99.5 µM
NCc1cccc(NC(=O)[C@@H]2CCC[C@H](NC(=O)OCc3ccccc3)C2)c1	> 99.5 µM
Cn1nc2c(c1NC(=O)c1cc(Cl)cc(NC(=O)OCc3ccccc3)c1)CNC2	> 99.5 µM
c1ccc2c(CN[C@H]3CCc4ncsc4C3)n[nH]c2c1	> 99.5 µM
NCc1cc(S(=O)(=O)Nc2ccc(Cl)cc2C(=O)NCC(F)(F)F)ccc1Oc1ccccc1	> 99.5 µM
O=C(O)c1cc(Cl)ccc1S(=O)(=O)NC1CCN(S(=O)(=O)c2cccs2)CC1	> 99.5 µM
NCCNC(=O)c1cc(Cl)cc(NC(=O)OCc2ccccc2)c1	> 99.5 µM
NC1CCN(C(=O)c2cc(Cl)cc(NC(=O)OCc3ccccc3)c2)CC1	> 99.5 µM
c1ccc(-c2ncc(CN3CCC(c4nc5ccccc5s4)CC3)[nH]2)cc1	> 99.5 µM
CC1(C)CNC[C@H](C(=O)Nc2cccc(CN)c2)C1	> 99.5 µM
CCn1cc(C(=O)N2CCN(C)CC2)nc(N2CC[C@@H](CO)C2)c1=O	> 99.5 µM
O=C(O)c1cc(Cl)ccc1S(=O)(=O)Nc1ccc(S(=O)(=O)Nc2ccccc2)cc1	> 99.5 µM
c1cc(CN2CCC(c3cscn3)CC2)[nH]n1	> 99.5 µM
O=C(O)c1cc(Cl)ccc1S(=O)(=O)N[C@H]1CC[C@H](Oc2cnccn2)CC1	> 99.5 µM
NCc1cccc(NC(=O)[C@H](NS(=O)(=O)c2cccnc2)c2ccc(OCc3ccccc3)cc2)c1	> 99.5 µM
NCc1cccc(NC(=O)[C@H](NC(=O)OCc2ccccc2)c2cccc(OCc3ncccn3)c2)c1	> 99.5 µM
CCn1c(=O)c(N2CCC[C@H]2c2nncs2)nc2ccccc21	> 99.5 µM
Cc1cc(CN(C)C)cc(NC(=O)[C@H](NC(=O)OCc2ccccc2)c2ccc(OCc3ccccc3)cc2)c1	> 99.5 µM
c1ccc2sc(C3CCN(Cc4n[nH]c5c4CCCC5)CC3)nc2c1	> 99.5 µM
COc1n[nH]cc1CN1CCC(c2nc3ccccc3s2)CC1	> 99.5 µM

SMILES	IC50
C[C@H]1CNC[C@H](C(=O)Nc2cccc(CN)c2)C1	> 99.5 µM
Cc1nn(C)cc1S(=O)(=O)N[C@@H](C(=O)Nc1cccc(CN)c1)c1ccc(OCc2ccccc2)cc1	> 99.5 µM
Cn1ccc(Nc2ccc(S(=O)(=O)Nc3ccc(Cl)cc3C(=O)O)cn2)n1	> 99.5 µM
Cn1ccnc1S(=O)(=O)N[C@@H](C(=O)Nc1cccc(CN)c1)c1ccc(OCc2ccccc2)cc1	> 99.5 µM
CC1(N2CCC(NS(=O)(=O)c3ccc(Cl)cc3C(=O)O)CC2)CCCCC1	> 99.5 µM
NCc1ccc(Oc2ccc(S(=O)(=O)Nc3ccc(Cl)cc3C(=O)NCC(F)(F)F)cc2)cc1	> 99.5 µM
c1ccc2c(CN[C@H]3CCc4c([nH]c5ccccc45)C3)n[nH]c2c1	> 99.5 µM
CCS(=O)(=O)N[C@@H](C(=O)Nc1cccc(CN)c1)c1ccc(OCc2ccccc2)cc1	> 99.5 µM
CN(C(=O)c1cc(Cl)cc(NC(=O)OCc2ccccc2)c1)c1ccc(CN)cc1	> 99.5 µM
CC(=O)N1CCC[C@H]1C(=O)N[C@@H](C(=O)Nc1cccc(CN)c1)c1ccc(OCc2ccccc2)cc1	> 99.5 µM
CC(C)N1CCc2nc(NC(=O)[C@H](NC(=O)OCc3ccccc3)c3ccc(OCc4ccccc4)cc3)sc2C1	> 99.5 µM
Cn1nccc1CN1CCC(NS(=O)(=O)c2ccc(Cl)cc2C(=O)O)CC1	> 99.5 µM
N#Cc1ccccc1O[C@H]1CC[C@H](NS(=O)(=O)c2ccc(Cl)cc2C(=O)O)CC1	> 99.5 µM
NCc1cccc(NC(=O)[C@@H]2C[C@H](NC(=O)OCc3ccccc3)[C@H]3C[C@H]32)c1	> 99.5 µM
NCc1cccc(NC(=O)[C@H](NS(=O)(=O)C[C@H]2COCCO2)c2ccc(OCc3ccccc3)cc2)c1	> 99.5 µM
CCn1cc(S(=O)(=O)N[C@@H](C(=O)Nc2cccc(CN)c2)c2ccc(OCc3ccccc3)cc2)cn1	> 99.5 µM
NCc1cccc(NC(=O)[C@H](NC(=O)OCc2ccccc2)c2cccc(OCc3ccccn3)c2)c1	> 99.5 µM
NCc1ccc(Oc2ccc(S(=O)(=O)Nc3ccc(Cl)cc3C(=O)O)cc2)cc1	> 99.5 µM

Further lines, results first:

IC50	SMILES
> 99.5 µM	NCc1nccc(NC(=O)c2cc(Cl)cc(NC(=O)OCc3ccccc3)c2)n1
> 99.5 µM	CCn1cc(C(=O)Nc2ccccc2)nc(N2CC[C@@H](CO)C2)c1=O
74.4 µM	NCc1cccc(NC(=O)c2cc(F)cc(NC(=O)OCc3ccccc3)c2F)c1
> 99.5 µM	c1cnc2c(c1)CC[C@@H]2NCc1n[nH]c2ccccc12
> 99.5 µM	Cc1nocc1S(=O)(=O)N[C@H](C(=O)Nc1cccc(CN)c1)c1ccc(OCc2ccccc2)cc1
54.6 µM	COc1ccc(C)cc1S(=O)(=O)N[C@@H](C(=O)Nc1cccc(CN)c1)c1ccc(OCc2ccccc2)cc1
34 µM	NCc1cccc(NC(=O)[C@@H](NS(=O)(=O)CCc2ccccc2)c2ccc(OCc3ccccc3)cc2)c1
> 99.5 µM	NC1(c2cccc(NC(=O)c3cc(Cl)cc(NC(=O)OCc4ccccc4)c3)c2)CCC1
> 99.5 µM	Cc1ccc(-c2nc(NC(=O)[C@H](NC(=O)OCc3ccccc3)c3ccc(OCc4ccccc4)cc3)sc2CN(C)C)cc1
> 99.5 µM	CN(C)Cc1cc(NC(=O)c2cc(Cl)cc(NC(=O)OCc3ccccc3)c2)sn1
> 99.5 µM	Cn1ccc(-c2n[nH]cc2CN2CCC(c3nc4ccccc4s3)CC2)n1
< 2.49 µM	NCc1cccc(NC(=O)c2cc(Cl)cc(CN)c2)c1
> 99.5 µM	NCc1cccc(NC(=O)[C@H](NC(=O)OCc2ccccc2)C2CCNCC2)c1
> 99.5 µM	NCc1cc(S(=O)(=O)Nc2ccc(Cl)cc2C(=O)O)ccc1Oc1ccccc1
> 99.5 µM	O=C(O)c1cc(Cl)cc(Cl)c1S(=O)(=O)Nc1ccc(Oc2ccccc2Cl)cc1
> 99.5 µM	CCNC(=O)c1cn(CC)c(=O)c(N2CC[C@@H](CO)C2)n1
> 99.5 µM	NCc1cccc(NC(=O)[C@H](NC(=O)OCc2ccccc2)c2cccc(OCC3CCOCC3)c2)c1
43.1 µM	O=C(O)c1cc(Cl)ccc1NS(=O)(=O)c1ccc(-c2cscn2)cc1
> 99.5 µM	C[C@H]1CN(C(=O)c2cccc3c(CN)cccc23)CCC12CCNCC2
> 99.5 µM	CN1CCc2nc(NC(=O)c3cc(Cl)cc(NC(=O)OCc4ccccc4)c3)sc2C1

IC50	SMILES
> 99.5 µM	CCn1nccc1S(=O)(=O)N[C@@H](C(=O)Nc1cccc(CN)c1)c1ccc(OCc2ccccc2)cc1
> 99.5 µM	O=C(O)c1cc(Cl)ccc1S(=O)(=O)N[C@H]1CC[C@@H](Oc2cnccn2)CC1
97.3 µM	NCC1CCN(C(=O)c2cc(Cl)cc(NC(=O)OCc3ccccc3)c2)CC1
> 99.5 µM	COc1ncccc1S(=O)(=O)N[C@H](C(=O)Nc1cccc(CN)c1)c1ccc(OCc2ccccc2)cc1
> 99.5 µM	Cn1ccc(CS(=O)(=O)N[C@@H](C(=O)Nc2cccc(CN)c2)c2ccc(OCc3ccccc3)cc2)n1
> 99.5 µM	COC(=O)[C@H](NC(=O)OC(C)(C)C)c1ccc(-c2csc(C)c2)cc1
> 99.5 µM	CC1=NN(c2ccc(NS(=O)(=O)c3ccc(Cl)cc3C(=O)O)cn2)C(=O)C1
> 99.5 µM	c1cncc(CC2CN(Cc3n[nH]c4ccccc34)C2)c1
> 99.5 µM	O=C(Nc1cc(Cl)cc(C(=O)Nc2cccc(CC3CCNCC3)c2)c1)OCc1ccccc1
98.1 µM	COC(=O)C1(S(=O)(=O)N[C@H](C(=O)Nc2cccc(CN)c2)c2ccc(OCc3ccccc3)cc2)CCC1
10.7 µM	NCCc1ccc(NC(=O)c2cc(Cl)cc(NC(=O)OCc3ccccc3)c2)cc1
93.9 µM	COc1ccc([C@@H](CC(=O)Nc2cccc(CN)c2)NC(=O)OCc2ccccc2)cc1Br
14.6 µM	C[C@@H](N)c1ccc(NC(=O)c2cc(Cl)cc(NC(=O)OCc3ccccc3)c2)cc1
78.8 µM	COc1cc(NC(=O)OCc2ccccc2)cc(C(=O)Nc2cccc(CN)c2)c1
43.9 µM	NCc1cccc(NC(=O)c2cc(NC(=O)OCc3ccccc3)cc(Cl)c2Cl)c1
29.6 µM	CCn1nc(-c2ccccc2)cc1NS(=O)(=O)c1ccc(Cl)cc1C(=O)O
99 µM	NCc1cccc(NC(=O)[C@@H](NS(=O)(=O)c2ccccc2F)c2ccc(OCc3ccccc3)cc2)c1
29.8 µM	Cc1csc(COc2cccc([C@H](NC(=O)OCc3ccccc3)C(=O)Nc3cccc(CN)c3)c2)n1
2.89 µM	Cc1[nH]c2ccccc2c1CN1CCC(c2nc3ccccc3s2)CC1
15.4 µM	C[C@H]1CC[C@H](CS(=O)(=O)N[C@H](C(=O)Nc2cccc(CN)c2)c2ccc(OCc3ccccc3)cc2)CC1
